From ChEMBL document CHEMBL4834487, “Model studies towards prodrugs of the glutamine antagonist 6-diazo-5-oxo-l-norleucine (DON) containing a diazo precursor” (Bioorg Med Chem Lett, 2021)

Legend:
[1] = Stability of compound in potassium phosphate buffer at pH 7.4 assessed as parent compound remaining measured after 30 mins; assay type: physicochemical; conditions: read-out: Stabilty
[2] = Metabolic stability in pig liver homogenate assessed as parent compound remaining measured after 30 mins; assay type: ADME, tissue-based, Sus scrofa; conditions: read-out: Stabilty
[3] = Metabolic stability in pig brain homogenate assessed as parent compound remaining measured after 30 mins; assay type: ADME, tissue-based, Sus scrofa; conditions: read-out: Stabilty
[4] = Stability of compound in sodium acetate buffer at pH 4 assessed as parent compound remaining measured after 60 mins; assay type: physicochemical; conditions: read-out: Stabilty
[5] = Stability of the compound in DMSO measured for 24 hrs; assay type: physicochemical
[6] = Drug metabolism in pig brain homogenate assessed as 6-Diazo-5-oxo-L-norleucin formation by ion chromatogram analysis; assay type: ADME, tissue-based, Sus scrofa
[7] = Drug metabolism in pig brain homogenate assessed as N-acetyl-6-Diazo-5-oxo-L-norleucin formation by ion chromatogram analysis; assay type: ADME, tissue-based, Sus scrofa
[8] = Stability of the compound in DMSO measured within 12 hrs; assay type: physicochemical

remaining at 0.5 h [1] | remaining at 0.5 h [2] | remaining at 0.5 h [3] | remaining at 1 h [4] | Stabilty [5] | Drug metabolism [6] | Drug metabolism [7] | Stabilty [8] | Structure (SMILES)
< 5% | < 5% | < 5% | > 95% | Stable | Metabolite_Notdetected | Metabolite_Detected | – | CC(=O)N[C@@H](CCC(=O)Cn1nnc2c(C(N)=O)ncn2c1=O)C(=O)O
– | – | – | – | – | – | – | Unstable | CC(=O)NC(CCC(=O)CN(N=O)C(=O)OCc1ccccc1)C(=O)O (stereo not drawn)
